From patent US12295936B2, “Immunomodulating urea azalides” (Zoetis Services LLC, priority 2020, dated 2025)

test system: BRD pathogens, M. haemolytica and P. multocida; experiment: MIC screening panel of BRD pathogens (antibacterial / non-antibacterial); details: read-out: antibacterial / non-antibacterial (MIC for the BRD pathogens)

Row | SMILES | MIC [µg/mL]
1 | CCCNC[C@]1(O)[C@H](C)O[C@@H](O[C@H]2[C@H](C)[C@@H](O[C@@H]3O[C@H](C)C[C@H](N(C)C(=O)Nc4cccc(C#N)c4)[C@H]3O)[C@](C)(O)C[C@@H](C)CN[C@H](C)[C@@H](O)[C@](C)(O)[C@@H](CC)OC(=O)[C@@H]2C)C[C@@]1(C)OC [Example H-79, 3-(3-cyanophenyl)-1-((2S,3R,4S,6R)-2-(((2R,3S,4R,5R,8R,10R,11R,12S,13S,14R)-2-ethyl-3,4,10-trihydroxy-13-(((2R,4R,5S,6S)-5-hydroxy-4-methoxy-4,6-dimethyl-5-((propylamino)methyl)tetrahydro-2H-pyran-2-yl)oxy)-3,5,8,10,12,14-hexamethyl-15-oxo-1-oxa-6-azacyclopentadecan-11-yl)oxy)-3-hydroxy-6-methyltetrahydro-2H-pyran-4-yl)-1-methylurea] | > 64
2 | CC[C@H]1OC(=O)[C@H](C)[C@@H](O)[C@H](C)[C@@H](O[C@@H]2O[C@H](C)C[C@H](N(C)C(=O)Nc3ccccc3F)[C@H]2O)[C@](C)(O)C[C@@H](C)CN[C@H](C)[C@@H](O)[C@]1(C)O [Example A-17, 1-((2S,3R,4S,6R)-2-(((2R,3S,4R,5R,8R,10R,11R,12S,13S,14R)-2-ethyl-3,4,10,13-tetrahydroxy-3,5,8,10,12,14-hexamethyl-15-oxo-1-oxa-6-azacyclopentadecan-11-yl)oxy)-3-hydroxy-6-methyltetrahydro-2H-pyran-4-yl)-3-(2-fluorophenyl)-1-methylurea] | > 64
3 | CCCNC[C@]1(O)[C@H](C)O[C@@H](O[C@H]2[C@H](C)[C@@H](O[C@@H]3O[C@H](C)C[C@H](N(C)C(=O)N(C)c4cc(C)nc(C)n4)[C@H]3O)[C@](C)(O)C[C@@H](C)CN[C@H](C)[C@@H](O)[C@](C)(O)[C@@H](CC)OC(=O)[C@@H]2C)C[C@@]1(C)OC [Example H-57, 1-(2,6-dimethylpyrimidin-4-yl)-3-((2S,3R,4S,6R)-2-(((2R,3S,4R,5R,8R,10R,11R,12S,13S,14R)-2-ethyl-3,4,10-trihydroxy-13-(((2R,4R,5S,6S)-5-hydroxy-4-methoxy-4,6-dimethyl-5-((propylamino)methyl)tetrahydro-2H-pyran-2-yl)oxy)-3,5,8,10,12,14-hexamethyl-15-oxo-1-oxa-6-azacyclopentadecan-11-yl)oxy)-3-hydroxy-6-methyltetrahydro-2H-pyran-4-yl)-1,3-dimethylurea] | > 64
4 | CC[C@H]1OC(=O)[C@H](C)[C@@H](O)[C@H](C)[C@@H](O[C@@H]2O[C@H](C)C[C@H](N(C)C(=O)Nc3cccc(C#N)c3)[C@H]2O)[C@](C)(O)C[C@@H](C)CN[C@H](C)[C@@H](O)[C@]1(C)O [Example A-11, 3-(3-cyanophenyl)-1-((2S,3R,4S,6R)-2-(((2R,3S,4R,5R,8R,10R,11R,12S,13S,14R)-2-ethyl-3,4,10,13-tetrahydroxy-3,5,8,10,12,14-hexamethyl-15-oxo-1-oxa-6-azacyclopentadecan-11-yl)oxy)-3-hydroxy-6-methyltetrahydro-2H-pyran-4-yl)-1-methylurea] | > 64
5 | CCCN(C[C@]1(O)[C@H](C)O[C@@H](O[C@H]2[C@H](C)[C@@H](O[C@@H]3O[C@H](C)C[C@H](N(C)C(=O)Nc4ccc(C(F)(F)F)cc4)[C@H]3O)[C@](C)(O)C[C@@H](C)CN[C@H](C)[C@@H](O)[C@](C)(O)[C@@H](CC)OC(=O)[C@@H]2C)C[C@@]1(C)OC)C(=O)Nc1ccc(C(F)(F)F)cc1 [Example H-12, 1-((2S,3R,4S,6R)-2-(((2R,3S,4R,5R,8R,10R,11R,12S,13S,14R)-2-ethyl-3,4,10-trihydroxy-13-(((2R,4R,5S,6S)-5-hydroxy-4-methoxy-4,6-dimethyl-5-((1-propyl-3-(4-(trifluoromethyl)phenyl)ureido)methyl)tetrahydro-2H-pyran-2-yl)oxy)-3,5,8,10,12,14-hexamethyl-15-oxo-1-oxa-6-azacyclopentadecan-11-yl)oxy)-3-hydroxy-6-methyltetrahydro-2H-pyran-4-yl)-1-methyl-3-(4-(trifluoromethyl)phenyl)urea] | > 64
